In patent publication US20160039880A1 (priority 2012, published 2016):
≈ marks a conversion by molar mass, not a printed value. Where two headings read alike, the source gives them in different places.

Tests used:
[1] = molecular target: Human recombinant cyclophilin A (Cyp A) (Homo sapiens, UniProt P62937); assay: Protease-free PPIase assay;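 also: cis to trans isomerization of SUC-AAPF-pNA by 2 nM enzyme, read as absorbance at 330 nm over 300 s at 10 °C, catalytic rate corrected for uncatalyzed background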
Chain of Human recombinant cyclophilin A (Cyp A) (P62937 whole entry): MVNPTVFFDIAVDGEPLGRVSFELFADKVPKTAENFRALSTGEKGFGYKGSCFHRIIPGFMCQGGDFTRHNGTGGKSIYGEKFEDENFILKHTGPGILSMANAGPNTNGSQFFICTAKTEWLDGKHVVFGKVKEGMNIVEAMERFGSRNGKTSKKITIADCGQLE

[2] = Water Solubility Assay (measured in pH 7.8 buffer); assay type: physicochemical;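 also: precipitation onset detected as rise in absorbance at 650 nm across increasing concentrations, after shaking for 18 h, blank wells receiving DMSO only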
[3] = 35 mM HEPES buffer pH 7.8, 25 °C, aqueous buffer, kinetic from dmso stock, pH 7.8 buffer, read-out: Water Solubility Assay
[4] = 25 °C, pH 7.8, aqueous buffer, kinetic from dmso stock

Ki [1]	solubility at 18 h [2, 3]	SMILES	further results
8.5 nM	> 100 µM	CC[C@H]1NC(=O)[C@@H]([C@H](O)[C@H](C)CCN(C)Cc2ncccn2)N(C)C(=O)[C@@H](C(C)C)N(C)C(=O)[C@@H](CC(C)C)N(C)C(=O)[C@@H](CC(C)C)N(C)C(=O)[C@H](C)NC(=O)[C@@H](C)NC(=O)[C@@H](CC(C)C)N(C)C(=O)[C@@H](C(C)C)NC(=O)[C@H](CC(C)C)N(C)C(=O)[C@@H](C)N(C)C1=O [Compound DG, [(3R,4R,5S)-4-Hydroxy-3-methyl-5-(methylamino)-1-({pyrimidin-2-ylmethyl}-methylamino)-hexanoic acid]^1[(R)-methyl-Sar]^3 cyclosporin A]	
5.2 nM	25 to 50 µM (≈ 33.1 to 66.2 µg/mL)	CC[C@H]1NC(=O)[C@@H]([C@H](O)[C@H](C)CCN2CCOc3ccccc32)N(C)C(=O)[C@@H](C(C)C)N(C)C(=O)[C@@H](CC(C)C)N(C)C(=O)[C@@H](CC(C)C)N(C)C(=O)[C@H](C)NC(=O)[C@@H](C)NC(=O)C(CC(C)C)N(C)C(=O)[C@@H](C(C)C)NC(=O)[C@H](CC(C)C)N(C)C(=O)[C@@H](C)N(C)C1=O (stereo partly drawn) [Compound DX, [(3R,4R,5S)-1-(2,3-Dihydro-benzo[1,4]oxazin-4-yl)-4-Hydroxy-3-methyl-5-(methylamino)-hexanoic acid]^1[(R)-methyl-Sar]^3 cyclosporin A]	
8 nM		CC[C@H]1NC(=O)[C@@H]([C@H](O)[C@H](C)CCN2CCOCC2)N(C)C(=O)[C@@H](C(C)C)N(C)C(=O)[C@@H](CC(C)C)N(C)C(=O)[C@@H](CC(C)C)N(C)C(=O)[C@H](C)NC(=O)[C@@H](C)NC(=O)[C@@H](CC(C)C)N(C)C(=O)[C@@H](C(C)C)NC(=O)[C@H](CC(C)C)N(C)C(=O)[C@@H](OC)N(C)C1=O [Compound B, [(3R,4R,5S)-4-Hydroxy-3-methyl-5-(methylamino)-1-N-morpholino-hexanoic acid]^1[(S)-methoxy-Sar]^3 cyclosporin A]	solubility at 18 h [2, 4]: > 100 µM
5.5 nM		CC[C@H]1NC(=O)[C@@H]([C@H](O)[C@H](C)CCN(C)CCC(F)(F)F)N(C)C(=O)[C@@H](C(C)C)N(C)C(=O)[C@@H](CC(C)C)N(C)C(=O)[C@@H](CC(C)C)N(C)C(=O)[C@H](C)NC(=O)[C@@H](C)NC(=O)[C@@H](CC(C)C)N(C)C(=O)[C@@H](C(C)C)NC(=O)[C@H](CC(C)C)N(C)C(=O)[C@@H](C)N(C)C1=O [Compound DN, [(3R,4R,5S)-4-Hydroxy-3-methyl-5-(methylamino)-1-({3,3,3-trifluoropropyl}-methyl-amino)-hexanoic acid]^1[(R)-methyl-Sar]^3 cyclosporin A]	solubility at 18 h [2, 4]: 25 to 50 µM (≈ 32.9 to 65.8 µg/mL)
40 nM		CC[C@H]1NC(=O)[C@@H]([C@H](O)[C@H](C)CCN2CCCC2)N(C)C(=O)[C@@H](C(C)C)N(C)C(=O)[C@@H](CC(C)C)N(C)C(=O)[C@@H](CC(C)C)N(C)C(=O)[C@H](C)NC(=O)[C@@H](C)NC(=O)C(CC(C)C)N(C)C(=O)[C@@H](C(C)C)NC(=O)[C@H](CC(C)C)N(C)C(=O)[C@@H](C)N(C)C1=O (stereo partly drawn) [Compound EF, [(3R,4R,5S)-4-Hydroxy-3-methyl-5-(methylamino)-1-(pyrrolidin-1-yl)-hexanoic acid]^1[(R)-methyl-Sar]^3 cyclosporin A]	
5.4 nM	> 100 µM	CC[C@H]1NC(=O)[C@@H]([C@H](O)[C@H](C)CCN(C)Cc2ccnn2C)N(C)C(=O)[C@@H](C(C)C)N(C)C(=O)[C@@H](CC(C)C)N(C)C(=O)[C@@H](CC(C)C)N(C)C(=O)[C@H](C)NC(=O)[C@@H](C)NC(=O)[C@@H](CC(C)C)N(C)C(=O)[C@@H](C(C)C)NC(=O)[C@H](CC(C)C)N(C)C(=O)[C@@H](C)N(C)C1=O [Compound DJ, [(3R,4R,5S)-4-Hydroxy-3-methyl-5-(methylamino)-1-({2-methyl-2H-pyrazol-3-ylmethyl}-methylamino)-hexanoic acid]^1[(R)-methyl-Sar]^3 cyclosporin A]	
4.3 nM	> 100 µM	CC[C@H]1NC(=O)[C@@H]([C@H](O)[C@H](C)CCN(C)Cc2cncn2C)N(C)C(=O)[C@@H](C(C)C)N(C)C(=O)[C@@H](CC(C)C)N(C)C(=O)[C@@H](CC(C)C)N(C)C(=O)[C@H](C)NC(=O)[C@@H](C)NC(=O)[C@@H](CC(C)C)N(C)C(=O)[C@@H](C(C)C)NC(=O)[C@H](CC(C)C)N(C)C(=O)[C@@H](C)N(C)C1=O [Compound DI, [(3R,4R,5S)-4-Hydroxy-3-methyl-5-(methylamino)-1-({3-methyl-3H-imidazol-4-ylmethyl}-methylamino)-hexanoic acid]^1[(R)-methyl-Sar]^3 cyclosporin A]	
23 nM		CC[C@H]1NC(=O)[C@@H]([C@H](O)[C@H](C)CCN(C)Cc2cnn(C)c2)N(C)C(=O)[C@@H](C(C)C)N(C)C(=O)[C@@H](CC(C)C)N(C)C(=O)[C@@H](CC(C)C)N(C)C(=O)[C@H](C)NC(=O)[C@@H](C)NC(=O)[C@@H](CC(C)C)N(C)C(=O)[C@@H](C(C)C)NC(=O)[C@H](CC(C)C)N(C)C(=O)[C@@H](C)N(C)C1=O [Compound DM, [(3R,4R,5S)-4-Hydroxy-3-methyl-5-(methylamino)-1-({1-methyl-1H-pyrazol-4-ylmethyl}-methylamino)-hexanoic acid]^1[(R)-methyl-Sar]^3 cyclosporin A]	
		CC[C@H]1NC(=O)[C@@H]([C@H](O)[C@H](C)CCN(C)CCOC)N(C)C(=O)[C@@H](C(C)C)N(C)C(=O)[C@@H](CC(C)C)N(C)C(=O)[C@@H](CC(C)C)N(C)C(=O)[C@H](C)NC(=O)[C@@H](C)NC(=O)[C@@H](CC(C)C)N(C)C(=O)[C@@H](C(C)C)NC(=O)[C@H](CC(C)C)N(C)C(=O)[C@@H](C)N(C)C1=O [Compound AG]	Ki ([1]; read-out: Protease-free PPIase Assay Ki, cyclophilin A, 10 °C): 18 nM; solubility at 18 h ([2]; 35 mM HEPES pH 7.8, 1% DMSO, 25 °C, 18 h, read-out: Water Solubility Assay, concentration at which the compound remains in solution): >100 µM
5.7 nM	> 100 µM	CC[C@H]1NC(=O)[C@@H]([C@H](O)[C@H](C)CCN(C)Cc2ccncc2)N(C)C(=O)[C@@H](C(C)C)N(C)C(=O)[C@@H](CC(C)C)N(C)C(=O)[C@@H](CC(C)C)N(C)C(=O)[C@H](C)NC(=O)[C@@H](C)NC(=O)[C@@H](CC(C)C)N(C)C(=O)[C@@H](C(C)C)NC(=O)[C@H](CC(C)C)N(C)C(=O)[C@@H](C)N(C)C1=O [Compound DL, [(3R,4R,5S)-4-Hydroxy-3-methyl-5-(methylamino)-1-({pyridin-4-ylmethyl}-methylamino)-hexanoic acid]^1[(R)-methyl-Sar]^3 cyclosporin A]	
16.2 nM		CC[C@H]1NC(=O)[C@@H]([C@H](O)[C@H](C)CCN(C)Cc2ccc(F)cn2)N(C)C(=O)[C@@H](C(C)C)N(C)C(=O)[C@@H](CC(C)C)N(C)C(=O)[C@@H](CC(C)C)N(C)C(=O)[C@H](C)NC(=O)[C@@H](C)NC(=O)[C@@H](CC(C)C)N(C)C(=O)[C@@H](C(C)C)NC(=O)[C@H](CC(C)C)N(C)C(=O)[C@@H](C)N(C)C1=O [Compound DP, [(3R,4R,5S)-4-Hydroxy-3-methyl-5-(methylamino)-1-({5-fluoro-pyridin-2-ylmethyl}-methylamino)-hexanoic acid]^1[(R)-methyl-Sar]^3 cyclosporin A]	
11 nM		CC[C@H]1NC(=O)[C@@H]([C@H](O)[C@H](C)CCN(C)Cc2ccc(Cl)cn2)N(C)C(=O)[C@@H](C(C)C)N(C)C(=O)[C@@H](CC(C)C)N(C)C(=O)[C@@H](CC(C)C)N(C)C(=O)[C@H](C)NC(=O)[C@@H](C)NC(=O)[C@@H](CC(C)C)N(C)C(=O)[C@@H](C(C)C)NC(=O)[C@H](CC(C)C)N(C)C(=O)[C@@H](C)N(C)C1=O [Compound DQ, [(3R,4R,5S)-4-Hydroxy-3-methyl-5-(methylamino)-1-({5-chloro-pyridin-2-ylmethyl}-methylamino)-hexanoic acid]^1[(R)-methyl-Sar]^3 cyclosporin A]	
8.4 nM		CC[C@H]1NC(=O)[C@@H]([C@H](O)[C@H](C)CCN(C)Cc2ncccc2C(F)(F)F)N(C)C(=O)[C@@H](C(C)C)N(C)C(=O)[C@@H](CC(C)C)N(C)C(=O)[C@@H](CC(C)C)N(C)C(=O)[C@H](C)NC(=O)[C@@H](C)NC(=O)[C@@H](CC(C)C)N(C)C(=O)[C@@H](C(C)C)NC(=O)[C@H](CC(C)C)N(C)C(=O)[C@@H](C)N(C)C1=O [Compound DR, [(3R,4R,5S)-4-Hydroxy-3-methyl-5-(methylamino)-1-({3-trifluoromethyl-pyridin-2-ylmethyl}-methylamino)-hexanoic acid]^1[(R)-methyl-Sar]^3 cyclosporin A]	
22 nM		CC[C@H]1NC(=O)[C@@H]([C@H](O)[C@H](C)CCN2CCCCC2)N(C)C(=O)[C@@H](C(C)C)N(C)C(=O)[C@@H](CC(C)C)N(C)C(=O)[C@@H](CC(C)C)N(C)C(=O)[C@H](C)NC(=O)[C@@H](C)NC(=O)C(CC(C)C)N(C)C(=O)[C@@H](C(C)C)NC(=O)[C@H](CC(C)C)N(C)C(=O)[C@@H](C)N(C)C1=O (stereo partly drawn) [Compound EA, [(3R,4R,5S)-4-Hydroxy-3-methyl-5-(methylamino)-1-(piperidin-1-yl)-hexanoic acid]^1[(R)-methyl-Sar]^3 cyclosporin A]	

SMILES	Ki [1]	solubility at 18 h [2, 3]	further results
CC[C@H]1NC(=O)[C@@H]([C@H](O)[C@H](C)CCCCN(C)C)N(C)C(=O)[C@@H](C(C)C)N(C)C(=O)[C@@H](CC(C)C)N(C)C(=O)[C@@H](CC(C)C)N(C)C(=O)[C@H](C)NC(=O)[C@@H](C)NC(=O)[C@@H](CC(C)C)N(C)C(=O)[C@@H](C(C)C)NC(=O)[C@H](CC(C)C)N(C)C(=O)[C@@H](C)N(C)C1=O [Compound KF, [(5R,6R,7S)-1-(dimethylamino)-6-hydroxy-5-methyl-7-(methylamino)-octanoic acid]^1[(R)-methyl-Sar]^3 cyclosporin A]	7.8 nM		
CC[C@H]1NC(=O)[C@@H]([C@H](O)[C@H](C)CCCCN2CCOCC2)N(C)C(=O)[C@@H](C(C)C)N(C)C(=O)[C@@H](CC(C)C)N(C)C(=O)[C@@H](CC(C)C)N(C)C(=O)[C@H](C)NC(=O)[C@@H](C)NC(=O)[C@@H](CC(C)C)N(C)C(=O)[C@@H](C(C)C)NC(=O)[C@H](CC(C)C)N(C)C(=O)[C@@H](C)N(C)C1=O [Compound KG, [(5R,6R,7S)-6-hydroxy-5-methyl-7-(methylamino)-1-(N-morpholino)-octanoic acid]^1[(R)-methyl-Sar]^3 cyclosporin A]	3.8 nM		
